{"source": "PubChem BioAssay (NCI)", "note": "“And” between values parts separate entries of the source, which are not always exact repeats. Equal entries are not always repeated.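 Where inhibition never reached the appropriate level, the endpoint shown equals the highest concentration tested. Otherwise, values were interpolated linearly from a five-concentration, 48-hour dose response in 96-well plates. At the GI50, growth is halved. TGI is the concentration that stops growth completely.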", "data": [{"test_system": "TK-10 renal", "test": "growth of human tumour cells (NCI), 48 h", "units": {"TGI": "µM", "GI50": "µM"}, "values": [{"molecule": "COC(=N)c1csc(C2OC(CO)C(O)C2O)n1", "note": "(configuration not stated)", "TGI": "> 100"}, {"molecule": "O=C(CC(=O)Nc1ccccc1)NNC(Sc1ccccc1)c1cc(N=Nc2ccc(Br)cc2)ccc1O", "note": "(configuration not stated)", "TGI": "> 10"}, {"molecule": "Cc1cc(C(=O)CSC(=S)SC(C)(C)C)ccc1Cl", "TGI": 60}, {"molecule": "C=CC12CCN(CC1)C(C(O)c1ccnc3ccc(OC)cc13)C2", "note": "(configuration not stated)", "GI50": "> 100", "TGI": "> 100"}, {"molecule": "Nc1c(S(=O)(=O)c2ccc(Cl)cc2)c2nc3ccccc3nc2n2ccnc12", "TGI": 78.2}, {"molecule": "O=C(Nc1nc(-c2c[nH]c3ccccc23)cs1)c1n[nH]c(=O)c2ccccc12", "GI50": 14.4, "TGI": "> 100"}, {"molecule": "CN(C)CCN1CCC(Cc2ccccc2)CC1", "GI50": "> 80", "TGI": "> 80"}, {"molecule": "COc1cc2c3c(n(C)c(=O)c2cc1OC)-c1cc2c(cc1C3=O)OCO2", "TGI": "> 100"}, {"molecule": "COc1ccc(/C=C\\c2cc(OC)c(OC)c(OC)c2)cc1OCC(=O)O", "TGI": "> 100"}, {"molecule": "CO[C@@H]1CC[C@]2(C)OC[C@H](C)[C@@H]3C[C@@H](C)[C@@H](OC(C)=O)[C@@H]4[C@H]3[C@@H]2O[C@H]4C[C@@]1(C)O", "GI50": "> 100", "TGI": "> 100"}, {"molecule": "Oc1oc(C(=C2N=c3ccccc3=N2)c2ccc(Cl)cc2)c(O)c1-c1ccc(Cl)cc1", "TGI": 11.5}, {"molecule": "O=C(Nc1ncc(Cc2cccc(C(F)(F)F)c2)s1)c1ccc2c(c1)OCCO2", "GI50": 0.892, "TGI": "> 39.2"}]}, {"test_system": "NCI-H23 lung", "test": "growth of human tumour cells (NCI), 48 h", "units": {"GI50": "µM"}, "values": [{"molecule": "COc1cc2c(cc1OCCCN1CCN(CCCOc3cc4c(cc3OC)C(=O)N3CC(F)(F)C[C@H]3C=N4)CC1)N=C[C@@H]1CC(F)(F)CN1C2=O", "GI50": 4.55, "TGI": "16.8 µM"}, {"molecule": "COC(=O)C1=CN(CC2=CC(=O)C(C)=CC2=O)C=C(C(=O)OC)C1c1ccccc1OC", "GI50": 19.5, "TGI": "45.6 µM"}, {"molecule": "O/N=C1\\CCCCC1C(NO)c1ccccc1", "note": "(configuration not stated)", "TGI": "> 100 µM"}, {"molecule": "COC(=O)/C=C/c1cc(OC(C)=O)c2c(c1)C(C(=O)OC)C(c1ccc(OC(C)=O)c(OC(C)=O)c1)O2", "note": "(configuration not stated)", "GI50": 0.171, "TGI": "> 100 µM"}, {"molecule": "COc1cc(OC)c(OC)cc1/C=N/NC(=O)N/N=C/c1cc(OC)c(OC)cc1OC", "TGI": "> 100 µM"}, {"molecule": "O=C(O)c1ccc(CNCc2ccccc2)cc1", "TGI": "> 100 µM"}, {"molecule": "C=C(C)C(C1C=C(CCC(C=O)=C(C)C)C(=O)O1)C1(OC)C=C(C)C(=O)O1", "note": "(configuration not stated)", "GI50": 91.3, "TGI": "> 100 µM"}, {"molecule": "CCOC(=O)Nc1c(C)nc2ccccn12", "GI50": "> 100", "TGI": "> 100 µM"}, {"molecule": "Cc1cc2c(cc1C)[n+](=O)cc(C(=O)C/C(=N/NC(=S)NN)C(=O)Nc1cccc(C(F)(F)F)c1)n2[O-]", "TGI": "> 100 µM"}, {"molecule": "COCOCCC#CCO", "TGI": "> 100 µM"}, {"molecule": "O=[N+]([O-])c1ccccc1N=Nc1c(O)[nH]c2c(Cl)cc(Cl)cc12", "TGI": "> 100 µM"}, {"molecule": "NC(=S)N/N=C/c1ncccc1O", "GI50": 1.38, "TGI": "33.4 µM and 29.7 µM"}, {"molecule": "COC(=N)c1csc(C2OC(CO)C(O)C2O)n1", "note": "(configuration not stated)", "TGI": "> 100 µM"}, {"molecule": "O=C(CC(=O)Nc1ccccc1)NNC(Sc1ccccc1)c1cc(N=Nc2ccc(Br)cc2)ccc1O", "note": "(configuration not stated)", "TGI": "> 10 µM"}, {"molecule": "Cc1cc(C(=O)CSC(=S)SC(C)(C)C)ccc1Cl", "TGI": "> 100 µM"}, {"molecule": "C=CC12CCN(CC1)C(C(O)c1ccnc3ccc(OC)cc13)C2", "note": "(configuration not stated)", "GI50": "> 100", "TGI": "> 100 µM"}, {"molecule": "Nc1c(S(=O)(=O)c2ccc(Cl)cc2)c2nc3ccccc3nc2n2ccnc12", "TGI": "> 100 µM"}, {"molecule": "O=C(Nc1nc(-c2c[nH]c3ccccc23)cs1)c1n[nH]c(=O)c2ccccc12", "GI50": 24.2, "TGI": "> 100 µM"}, {"molecule": "CN(C)CCN1CCC(Cc2ccccc2)CC1", "GI50": "> 80", "TGI": "> 80 µM"}, {"molecule": "COc1cc2c3c(n(C)c(=O)c2cc1OC)-c1cc2c(cc1C3=O)OCO2", "TGI": "37 µM"}, {"molecule": "COc1ccc(/C=C\\c2cc(OC)c(OC)c(OC)c2)cc1OCC(=O)O", "TGI": "12.5 µM"}, {"molecule": "CO[C@@H]1CC[C@]2(C)OC[C@H](C)[C@@H]3C[C@@H](C)[C@@H](OC(C)=O)[C@@H]4[C@H]3[C@@H]2O[C@H]4C[C@@]1(C)O", "GI50": "> 100", "TGI": "> 100 µM"}, {"molecule": "Oc1oc(C(=C2N=c3ccccc3=N2)c2ccc(Cl)cc2)c(O)c1-c1ccc(Cl)cc1", "TGI": "4.34 µM"}, {"molecule": "O=C(Nc1ncc(Cc2cccc(C(F)(F)F)c2)s1)c1ccc2c(c1)OCCO2", "GI50": 0.474, "TGI": "> 57.6 µM"}]}, {"test_system": "MALME-3M melanoma", "test": "growth of human tumour cells (NCI), 48 h", "units": {"GI50": "µM"}, "values": [{"molecule": "COc1cc2c(cc1OCCCN1CCN(CCCOc3cc4c(cc3OC)C(=O)N3CC(F)(F)C[C@H]3C=N4)CC1)N=C[C@@H]1CC(F)(F)CN1C2=O", "GI50": 2.8, "TGI": "6.34 µM"}, {"molecule": "COC(=O)C1=CN(CC2=CC(=O)C(C)=CC2=O)C=C(C(=O)OC)C1c1ccccc1OC", "GI50": 14, "TGI": "33.3 µM"}, {"molecule": "O/N=C1\\CCCCC1C(NO)c1ccccc1", "note": "(configuration not stated)", "TGI": "> 100 µM"}, {"molecule": "COC(=O)/C=C/c1cc(OC(C)=O)c2c(c1)C(C(=O)OC)C(c1ccc(OC(C)=O)c(OC(C)=O)c1)O2", "note": "(configuration not stated)", "GI50": 1.08, "TGI": "56.6 µM"}, {"molecule": "COc1cc(OC)c(OC)cc1/C=N/NC(=O)N/N=C/c1cc(OC)c(OC)cc1OC", "TGI": "> 100 µM"}, {"molecule": "O=C(O)c1ccc(CNCc2ccccc2)cc1", "TGI": "> 100 µM"}, {"molecule": "C=C(C)C(C1C=C(CCC(C=O)=C(C)C)C(=O)O1)C1(OC)C=C(C)C(=O)O1", "note": "(configuration not stated)", "GI50": "> 100", "TGI": "> 100 µM"}, {"molecule": "CCOC(=O)Nc1c(C)nc2ccccn12", "GI50": "> 100", "TGI": "> 100 µM"}, {"molecule": "Cc1cc2c(cc1C)[n+](=O)cc(C(=O)C/C(=N/NC(=S)NN)C(=O)Nc1cccc(C(F)(F)F)c1)n2[O-]", "TGI": "> 100 µM"}, {"molecule": "COCOCCC#CCO", "TGI": "> 100 µM"}, {"molecule": "O=[N+]([O-])c1ccccc1N=Nc1c(O)[nH]c2c(Cl)cc(Cl)cc12", "TGI": "> 95.7 µM"}, {"molecule": "NC(=S)N/N=C/c1ncccc1O", "GI50": 4.47, "TGI": "> 64.8 µM and 156 µM"}, {"molecule": "COC(=N)c1csc(C2OC(CO)C(O)C2O)n1", "note": "(configuration not stated)", "TGI": "> 100 µM"}, {"molecule": "O=C(CC(=O)Nc1ccccc1)NNC(Sc1ccccc1)c1cc(N=Nc2ccc(Br)cc2)ccc1O", "note": "(configuration not stated)", "TGI": "> 10 µM"}, {"molecule": "Cc1cc(C(=O)CSC(=S)SC(C)(C)C)ccc1Cl", "TGI": "33.4 µM"}, {"molecule": "C=CC12CCN(CC1)C(C(O)c1ccnc3ccc(OC)cc13)C2", "note": "(configuration not stated)", "GI50": 86.6, "TGI": "> 100 µM"}, {"molecule": "Nc1c(S(=O)(=O)c2ccc(Cl)cc2)c2nc3ccccc3nc2n2ccnc12", "TGI": "> 100 µM"}, {"molecule": "O=C(Nc1nc(-c2c[nH]c3ccccc23)cs1)c1n[nH]c(=O)c2ccccc12", "GI50": 18.7, "TGI": "80 µM"}, {"molecule": "CN(C)CCN1CCC(Cc2ccccc2)CC1", "GI50": "> 80", "TGI": "> 80 µM"}, {"molecule": "COc1cc2c3c(n(C)c(=O)c2cc1OC)-c1cc2c(cc1C3=O)OCO2", "TGI": "> 100 µM"}, {"molecule": "COc1ccc(/C=C\\c2cc(OC)c(OC)c(OC)c2)cc1OCC(=O)O", "TGI": "> 100 µM"}, {"molecule": "CO[C@@H]1CC[C@]2(C)OC[C@H](C)[C@@H]3C[C@@H](C)[C@@H](OC(C)=O)[C@@H]4[C@H]3[C@@H]2O[C@H]4C[C@@]1(C)O", "GI50": 63.9, "TGI": "> 100 µM"}, {"molecule": "Oc1oc(C(=C2N=c3ccccc3=N2)c2ccc(Cl)cc2)c(O)c1-c1ccc(Cl)cc1", "TGI": "7.72 µM"}, {"molecule": "O=C(Nc1ncc(Cc2cccc(C(F)(F)F)c2)s1)c1ccc2c(c1)OCCO2", "GI50": 0.569, "TGI": "> 60.9 µM"}]}]}
